These results are taken from patent US20250230193A1, “CYCLIC COMPOUND HAVING SELECTIVE KRAS INHIBITORY EFFECT ON HRAS AND NRAS” (CHUGAI SEIYAKU KABUSHIKI KAISHA, priority 2022, published 2025).

For experiment [1], the target named is GDP-bound NRAS wild-type protein (Homo sapiens, UniProt P01111). Put plainly: Binding to NRAS by surface plasmon resonance (SPR), Single Cycle Kinetics. To be noted: SPR; for NRAS/KRAS (ratio of KD value with respect to NRAS to KD value with respect to KRAS) / NRAS/KRAS (ratio of KD value for NRAS to KD value for KRAS): GDP-bound NRAS wild-type vs GDP-bound KRAS wild-type.
Sequence of GDP-bound NRAS wild-type protein (P01111 whole entry): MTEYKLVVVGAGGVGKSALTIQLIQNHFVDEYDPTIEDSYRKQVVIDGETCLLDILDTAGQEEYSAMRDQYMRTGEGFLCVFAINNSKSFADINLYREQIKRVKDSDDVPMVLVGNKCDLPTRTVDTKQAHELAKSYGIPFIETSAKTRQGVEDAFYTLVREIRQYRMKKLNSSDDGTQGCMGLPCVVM

Experiment [2] concerns the target GDP-bound HRAS wild-type protein (Homo sapiens, UniProt P01112). Nature of the experiment: Binding to HRAS by surface plasmon resonance (SPR), Single Cycle Kinetics. To be noted: SPR; for HRAS/KRAS (ratio of KD value with respect to HRAS to KD value with respect to KRAS) / HRAS/KRAS (ratio of KD value for HRAS to KD value for KRAS): GDP-bound HRAS wild-type vs GDP-bound KRAS wild-type.

Where a SMILES comes first, the peptide text is derived from it. Bridges are numbered along the chain shown (N, C = ends). [ ]: non-standard residue; d: D form. The star is where a group is joined. hPhe(3-Cl-4-CF3) = N[C@@H](CCc1ccc(C(F)(F)F)c(Cl)c1)C(=O)O; NPrPhe(4-CF3) = CCCN[C@@H](Cc1ccc(C(F)(F)F)cc1)C(=O)O; NMeGly(cPent) = CN[C@H](C(=O)O)C1CCCC1; Aze(3S-Me) = C[C@H]1CN[C@@H]1C(=O)O; NMeF = CN[C@@H](Cc1ccccc1)C(=O)O; NMeD = CN[C@@H](CC(=O)O)C(=O)O; NMeL = CN[C@@H](CC(C)C)C(=O)O; Morpholide = C1CN(*)CCO1; Ac5c = NC1(C(=O)O)CCCC1; Aze = O=C(O)[C@@H]1CCN1; Sar = CNCC(=O)O

Sequence of GDP-bound HRAS wild-type protein (P01112 whole entry): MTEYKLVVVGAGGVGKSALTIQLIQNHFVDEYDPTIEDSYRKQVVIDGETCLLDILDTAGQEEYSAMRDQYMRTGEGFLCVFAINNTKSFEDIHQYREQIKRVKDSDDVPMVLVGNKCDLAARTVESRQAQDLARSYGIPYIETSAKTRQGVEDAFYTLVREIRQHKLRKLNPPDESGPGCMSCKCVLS

Turning to `CCOC[C@H]1C(=O)N[C@@H]([C@@H](C)CC)C(=O)N(C)CC(=O)N(C)[C@H]2C/C=C\CCN(C2=O)[C@@H](Cc2ccc(C(F)(F)F)cc2)C(=O)N(C)CC(=O)N[C@@H](CCc2cc(F)c(C(F)(F)F)c(F)c2)C(=O)N2C[C@@H](C)C[C@H]2C(=O)NC2(CC(C)(C)C2)C(=O)N(C)[C@@H](C2CCCC2)C(=O)N(C)[C@H](C(=O)N(C)CC)CC(=O)N1C` [PP2042], in experiment [1], the “NRAS/KRAS (ratio of KD value with respect to NRAS to KD value with respect to KRAS)” value is “A (a compound having 10 or more and less than 20 is denoted as A)”. In addition, the “HRAS/KRAS (ratio of KD value with respect to HRAS to KD value with respect to KRAS)” value in experiment [2] is “A (a compound having 10 or more and less than 20 is denoted as A)”.
Take `CCCN(C)C(=O)[C@@H]1CC(=O)N(C)[C@@H](C(C)C)C(=O)N[C@@H]([C@@H](C)CC)C(=O)N(C)CC(=O)N(C)[C@H]2C/C=C\CCN(C2=O)[C@@H](Cc2ccc(C(F)(F)F)cc2)C(=O)N(C)CC(=O)N[C@@H](CCc2cc(F)c(C(F)(F)F)c(F)c2)C(=O)N2C[C@H](OCC)C[C@H]2C(=O)NC2(CCC2)C(=O)N(C)[C@@H](C2CCCC2)C(=O)N1C` [PP1992]: in experiment [1], the “NRAS/KRAS (ratio of KD value for NRAS to KD value for KRAS)” value is “AA (a compound having 20 or more is denoted as AA)”. Also, in experiment [2], the “HRAS/KRAS (ratio of KD value for HRAS to KD value for KRAS)” value was “B (a compound having 3 or more and less than 10 is denoted as B)”.
On to `CCCN1C(=O)CN(C)C(=O)[C@@H]2[C@@H](C)CN2C(=O)[C@H]([C@@H](C)CC)NC(=O)[C@H](CC(C)C)N(C)C(=O)C[C@@H](C(=O)N2CCOCC2)N(C)C(=O)[C@H](C2CCCC2)N(C)C(=O)C2(CCCC2)NC(=O)[C@@H]2CCCN2C(=O)[C@H](CCc2ccc(C(F)(F)F)c(Cl)c2)NC(=O)CN(C)C(=O)[C@@H]1Cc1ccc(C(F)(F)F)cc1` [PP0258] ([NMeL]I[Aze(3S-Me)][Sar][NPrPhe(4-CF3)][Sar][hPhe(3-Cl-4-CF3)]P[Ac5c][NMeGly(cPent)][NMeD]-Morpholide; lactam N-11), for which, in experiment [1] (KD ratio NRAS/KRAS), the “NRAS/KRAS (ratio of KD for GDP-bound NRAS wild-type to KD for KRAS)” value was “B (a compound having 3 or more and less than 10 is denoted as B)”. Moreover, the “HRAS/KRAS (ratio of KD for GDP-bound HRAS wild-type to KD for KRAS)” value in experiment [2] (KD ratio HRAS/KRAS) is “C (A compound having a KD ratio of 0.1 or more and less than 3 is denoted as C)”.
Consider `CCC[C@H]1C(=O)N[C@@H]([C@@H](C)CC)C(=O)N(C)CC(=O)N(C)[C@H]2C/C=C\CCN(C2=O)[C@@H](Cc2ccc(C)cc2)C(=O)N(C)CC(=O)N[C@@H](CCc2ccc(C(F)(F)F)c(OC)c2)C(=O)N2C[C@@H](C)C[C@H]2C(=O)N(C)C2(CCC2)C(=O)N(C)[C@@H](C2CCCC2)C(=O)N(C)[C@H](C(=O)N(C)C)CC(=O)N1C` [PP2364], for which the “NRAS/KRAS (ratio of KD value with respect to NRAS to KD value with respect to KRAS)” value in experiment [1] is “A (a compound having 10 or more and less than 20 is denoted as A)”. For the same compound, in experiment [2], the “HRAS/KRAS (ratio of KD value with respect to HRAS to KD value with respect to KRAS)” value is “B (a compound having 3 or more and less than 10 is denoted as B)”.
As to `CCCN(C)C(=O)[C@@H]1CC(=O)N(C)[C@@H](C2CC2)C(=O)N[C@@H]([C@@H](C)CC)C(=O)N(C)CC(=O)N(C)[C@H]2C/C=C\CCN(C2=O)[C@@H](Cc2ccc(C(F)(F)F)cc2)C(=O)N(C)CC(=O)N[C@@H](CCc2cc(F)c(C(F)(F)F)c(F)c2)C(=O)N2C[C@H](OCC)C[C@H]2C(=O)NC2(CCC2)C(=O)N(C)[C@@H](C2CCCC2)C(=O)N1C` [PP1994], the “NRAS/KRAS (ratio of KD value for NRAS to KD value for KRAS)” value in experiment [1] is given as “AA (a compound having 20 or more is denoted as AA)”. The “HRAS/KRAS (ratio of KD value for HRAS to KD value for KRAS)” value in experiment [2] is “A (a compound having 10 or more and less than 20 is denoted as A)”.
For the compound `CCO[C@@H]1C[C@H]2C(=O)NC3(CCC3)C(=O)N(C)[C@@H](C3CCCC3)C(=O)N(C)[C@H](C(=O)N(C)C)CC(=O)N(C)[C@@H](CC)C(=O)N[C@@H]([C@@H](C)CC)C(=O)N(C)CC(=O)N(C)[C@H]3CCCCN(C3=O)[C@@H](Cc3ccc(C(F)(F)F)cc3)C(=O)N(C)CC(=O)N[C@@H](CCc3cc(F)c(C(F)(F)F)c(F)c3)C(=O)N2C1` [PP0693], the “NRAS/KRAS (ratio of KD value with respect to GDP-bound NRAS wild-type protein to KD value with respect to KRAS)” value in experiment [1] (KD ratio NRAS/KRAS) was “C (A compound having a KD ratio of 0.1 or more and less than 3 is denoted as C)”. In addition, the “HRAS/KRAS (ratio of KD value with respect to GDP-bound HRAS wild-type protein to KD value with respect to KRAS)” value in experiment [2] (KD ratio HRAS/KRAS) is “C (A compound having a KD ratio of 0.1 or more and less than 3 is denoted as C)”.
In the case of `CCCN1C(=O)[C@@H]2CCN2C(=O)[C@H](Cc2ccccc2)N(C)C(=O)[C@H]([C@@H](C)CC)NC(=O)[C@H](CC(C)C)N(C)C(=O)C[C@@H](C(=O)N2CCOCC2)N(C)C(=O)[C@H](C2CCCC2)N(C)C(=O)C2(CCCC2)NC(=O)[C@@H]2CCCN2C(=O)[C@H](CCc2ccc(C(F)(F)F)c(Cl)c2)NC(=O)CN(C)C(=O)[C@@H]1Cc1ccc(C(F)(F)F)cc1` [PP0209] ([NMeL]I[NMeF][Aze][NPrPhe(4-CF3)][Sar][hPhe(3-Cl-4-CF3)]P[Ac5c][NMeGly(cPent)][NMeD]-Morpholide; lactam N-11), the “NRAS/KRAS (ratio of KD for GDP-bound NRAS wild-type to KD for KRAS)” value in experiment [1] (KD ratio NRAS/KRAS) was “C (A compound having a KD ratio of 0.1 or more and less than 3 is denoted as C)”. Besides, in experiment [2] (KD ratio HRAS/KRAS), the “HRAS/KRAS (ratio of KD for GDP-bound HRAS wild-type to KD for KRAS)” value is “C (A compound having a KD ratio of 0.1 or more and less than 3 is denoted as C)”.
